Reference: patent US20240116985A1, “STAPLED PEPTIDES AND METHODS THEREOF” (priority 2020, published 2024)
Like-named read-outs stand apart in the source and are kept apart here.

Experiments:
[1] = target: T1, full-length beta-Catenin (Uniprot ID P35222) (Homo sapiens, UniProt P35222); experiment: Fluorescence polarization IC50 (beta-catenin / 5FAM-TCF4 10-53 competition); assay type: binding; conditions: fluorescence polarization; read-out: beta-Catenin FP IC50
T1 construct: 10 nM full-length beta-Catenin (Uniprot ID P35222)
T1 sequence (P35222 1-781): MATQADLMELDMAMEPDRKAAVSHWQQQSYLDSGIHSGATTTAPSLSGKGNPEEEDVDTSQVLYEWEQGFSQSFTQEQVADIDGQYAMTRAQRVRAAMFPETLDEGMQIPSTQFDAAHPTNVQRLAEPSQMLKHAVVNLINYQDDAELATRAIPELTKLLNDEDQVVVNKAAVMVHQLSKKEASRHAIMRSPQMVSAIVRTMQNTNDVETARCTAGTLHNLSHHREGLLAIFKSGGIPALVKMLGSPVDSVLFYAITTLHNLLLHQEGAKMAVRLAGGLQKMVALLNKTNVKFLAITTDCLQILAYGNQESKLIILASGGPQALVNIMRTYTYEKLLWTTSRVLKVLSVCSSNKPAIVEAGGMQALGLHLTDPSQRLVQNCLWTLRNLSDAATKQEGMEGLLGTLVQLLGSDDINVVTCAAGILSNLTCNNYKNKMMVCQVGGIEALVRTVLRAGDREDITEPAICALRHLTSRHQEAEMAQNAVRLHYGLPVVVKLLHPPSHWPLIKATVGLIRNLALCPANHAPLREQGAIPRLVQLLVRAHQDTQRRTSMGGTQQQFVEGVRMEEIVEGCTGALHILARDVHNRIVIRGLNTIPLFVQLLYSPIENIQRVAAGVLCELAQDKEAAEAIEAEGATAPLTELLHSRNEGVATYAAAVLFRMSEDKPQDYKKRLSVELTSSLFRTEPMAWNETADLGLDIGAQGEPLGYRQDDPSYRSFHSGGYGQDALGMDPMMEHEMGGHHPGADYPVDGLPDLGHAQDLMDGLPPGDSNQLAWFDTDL

[2] = target: T2, beta-catenin/TCF4 engagement (Homo sapiens, UniProt P35222); experiment: Nano-BRET target engagement assay (B-cat-Halo & TCF4-Luc in HEK293 cells); assay type: cell-based; conditions: read-out: NanoBRET Abs IC50
T2 construct: expressed in transfected cells; host or cells: HEK293
T2 sequence (P35222 1-781): T1 sequence (P35222 1-781)

Compound	IC50 [1]	IC50 ([2]; absolute IC50)	IC50 [2]
CC(=O)N1CCC[C@]12CC=CCCCC1(CCCC=CCCCOC(=O)N3CC[C@@](C(=O)N[C@@H](Cc4ccccc4C(F)(F)F)C(=O)N[C@@H](Cc4csc5c(Cl)cccc45)C(=O)N[C@@H](CCC(N)=O)C(N)=O)(C3)NC(=O)[C@H](CC(C)C)NC(=O)[C@H](Cc3ccccc3)NC(=O)[C@H](C)NC(=O)[C@H](C)NC(=O)[C@H](Cc3cccc(C(=O)O)c3)NC(=O)[C@H](CC(=O)O)NC1=O)NC(=O)[C@H](CC(C)(C)C)NC(=O)[C@H](CC(=O)O)NC2=O (stereo partly drawn) [I-2486, Ac-PL3-Asp-Npg-B5-Asp-3COOHF-Ala-Ala-Phe-Leu-PyrS2-2F3MeF-7C1BztA-Gln-NH2]	34 nM	3700 nM	
CCCC[C@@H]1NC(=O)[C@H](CC(=O)O)NC(=O)[C@]2(CC=CCCCC3(CCCC=CCCCOC(=O)N4CC[C@@](C(=O)N[C@@H](Cc5ccsc5)C(=O)N[C@@H](Cc5csc6ccccc56)C(=O)N[C@@H](CCC(N)=O)C(N)=O)(C4)NC(=O)[C@H](CCCC)NC(=O)[C@H](Cc4ccccc4)NC(=O)[C@H](C)NC(=O)[C@H](C)NC(=O)[C@H](Cc4cccc(C(=O)O)c4)NC(=O)[C@H](CC(=O)O)NC3=O)NC1=O)CCCN2C(C)=O (stereo partly drawn) [I-1408, Ac-PL3-Asp-nLeu-B5-Asp-3COOHF-Ala-Ala-Phe-nLeu-PyrS2-3Thi-BztA-Gln-NH2]	33 nM	6000 nM	
CCN(CC(=O)O)C[C@@H]1NC(=O)[C@H](CC(=O)O)NC(=O)C2(CCCC=CCCCOC(=O)N3CC[C@@](C(=O)N[C@@H](Cc4ccccc4Cl)C(=O)N[C@@H](Cc4csc5ccccc45)C(=O)N[C@@H](CCC(N)=O)C(N)=O)(C3)NC(=O)[C@H](CC(N)=O)NC(=O)[C@H](Cc3ccccc3)NC(=O)[C@H](C)NC(=O)[C@H](C)NC1=O)CCCC=CC[C@]1(CCCN1C(C)=O)C(=O)N[C@@H](CC(=O)O)C(=O)N[C@@H](CC(C)(C)C)C(=O)N2 (stereo partly drawn) [I-1622, Ac-PL3-Asp-Npg-B5-Asp-[Et]GA-Ala-Ala-Phe-Asn-PyrS2-2C1F-BztA-Gln-NH2]	13 nM	> 20000 nM	
CC(=O)N1CCC[C@]12CC=CCCCC1(CCCC=CCCCOC(=O)N3CCC(C(=O)N[C@@H](Cc4ccsc4)C(=O)N[C@@H](Cc4csc5ccccc45)C(=O)N[C@@H](CCC(N)=O)C(N)=O)(CC3)NC(=O)[C@H](CC(C)C)NC(=O)[C@H](Cc3ccccc3)NC(=O)[C@H](C)NC(=O)[C@H](C)NC(=O)[C@H](Cc3cccc(C(=O)O)c3)NC(=O)[C@H](CC(=O)O)NC1=O)NC(=O)[C@H](CC(C)(C)C)NC(=O)[C@H](CC(=O)O)NC2=O (stereo partly drawn) [I-2589, Ac-PL3-Asp-Npg-B5-Asp-3COOHF-Ala-Ala-Phe-Leu-SPip2-3Thi-BztA-Gln-NH2]	25 nM		15200 nM
CC(=O)N1CCC[C@]12CC=CCCCC1(CCCC=CCCCOC(=O)N3CC[C@@](C(=O)N[C@@H](Cc4ccsc4)C(=O)N[C@@H](Cc4csc5ccccc45)C(=O)N[C@@H](Cc4cccc(C(N)=O)c4)C(N)=O)(C3)NC(=O)[C@H](CC(C)C)NC(=O)[C@H](Cc3ccccc3)NC(=O)[C@H](C)NC(=O)[C@H](C)NC(=O)[C@H](CN(CC(=O)O)CC(F)(F)F)NC(=O)[C@H](CC(=O)O)NC1=O)NC(=O)[C@H](CC(C)(C)C)NC(=O)[C@H](CC(=O)O)NC2=O (stereo partly drawn) [I-1708, Ac-PL3-Asp-Npg-B5-Asp-TfeGA-Ala-Ala-Phe-Leu-PyrS2-3Thi-BztA-3cbmf-NH2]	29 nM	11900 nM	
CC(=O)N1CCC[C@]12CC=CCCCC1(CCCC=CCCCOC(=O)N3CC[C@@](C(=O)N[C@@H](Cc4ccccc4Cl)C(=O)N[C@@H](Cc4csc5ccccc45)C(=O)N[C@@H](Cc4ccccc4)C(N)=O)(C3)NC(=O)[C@H](CC(N)=O)NC(=O)[C@H](Cc3ccccc3)NC(=O)[C@H](C)NC(=O)[C@H](C)NC(=O)[C@H](Cc3cccc(C(=O)O)c3)NC(=O)[C@H](CC(=O)O)NC1=O)NC(=O)[C@H](CC(C)(C)C)NC(=O)[C@H](CC(=O)O)NC2=O (stereo partly drawn) [I-2033, Ac-PL3-Asp-Npg-B5-Asp-3COOHF-Ala-Ala-Phe-Asn-PyrS2-2C1F-BztA-Phe-NH2]	30 nM		9500 nM
CC(=O)N1CCC[C@]12CC=CCCCC1(CCCC=CCCCOC(=O)N3CC[C@@](C(=O)N[C@@H](Cc4ccccc4C(F)(F)F)C(=O)N[C@H](C(=O)N[C@@H](C)C(N)=O)[C@@H](C)c4ccc5ccccc5c4)(C3)NC(=O)[C@H](CC(C)C)NC(=O)[C@H](Cc3ccccc3)NC(=O)[C@H](C)NC(=O)[C@H](CCC(N)=O)NC(=O)[C@H](Cc3cccc(C(=O)O)c3)NC(=O)[C@H](CC(=O)O)NC1=O)NC(=O)[C@H](CC(C)(C)C)NC(=O)[C@H](CC(=O)O)NC2=O (stereo partly drawn) [I-2465, Ac-PL3-Asp-Npg-B5-Asp-3COOHF-Gln-Ala-Phe-Leu-PyrS2-2F3MeF-SbMe2NapA-Ala-NH2]	164 nM	> 20000 nM	
CC(=O)N1CCC[C@]12CC=CCCCC1(CCCC=CCCCOC(=O)N3CC[C@@](C(=O)N[C@@H](Cc4ccccc4C(F)(F)F)C(=O)N[C@@H](Cc4csc5cccc(Cl)c45)C(=O)N[C@@H](C)C(N)=O)(C3)NC(=O)[C@H](CC(C)C)NC(=O)[C@H](Cc3ccccc3)NC(=O)[C@H](C)NC(=O)[C@H](CCC(N)=O)NC(=O)[C@H](Cc3cccc(C(=O)O)c3)NC(=O)[C@H](CC(=O)O)NC1=O)NC(=O)[C@H](CC(C)(C)C)NC(=O)[C@H](CC(=O)O)NC2=O (stereo partly drawn) [I-2491, Ac-PL3-Asp-Npg-B5-Asp-3COOHF-Gln-Ala-Phe-Leu-PyrS2-2F3MeF-4C1BztA-Ala-NH2]	49 nM	6100 nM	
CC(=O)N1CCC[C@]12CC=CCCCC1(CCCC=CCCCOC(=O)N3CC[C@@](C(=O)N[C@@H](Cc4ccsc4)C(=O)N[C@@H](Cc4csc5ccccc45)C(=O)N[C@@H](C)C(N)=O)(C3)NC(=O)[C@H](CC(C)C)NC(=O)[C@H](Cc3ccccc3)NC(=O)[C@H](C)NC(=O)C(C)(C)NC(=O)[C@H](Cc3ccc(F)c(C(=O)O)c3)NC(=O)[C@H](CC(=O)O)NC1=O)NC(=O)[C@H](CC(C)(C)C)NC(=O)[C@H](CC(=O)O)NC2=O (stereo partly drawn) [I-2207, Ac-PL3-Asp-Npg-B5-Asp-4F3COOHF-Aib-Ala-Phe-Leu-PyrS2-3Thi-BztA-Ala-NH2]	16 nM	3200 nM	
CC(=O)N1CCC[C@]12CC=CCCCC1(CCCC=CCCCCCC[C@@](C)(C(=O)N[C@@H](Cc3ccccc3)C(=O)N[C@@H](Cc3csc4ccccc34)C(=O)N[C@@H](CCC(N)=O)C(N)=O)NC(=O)[C@H](CCO)NC(=O)[C@H](Cc3ccccc3)NC(=O)[C@H](C)NC(=O)[C@H](C)NC(=O)[C@H](CCC(=O)O)NC(=O)[C@H](CC(=O)O)NC1=O)NC(=O)[C@H](CC(N)=O)NC(=O)[C@H](CC(=O)O)NC2=O (stereo partly drawn) [I-1535, Ac-PL3-Asp-Asn-B5-Asp-Glu-Ala-Ala-Phe-Hse-S8-Phe-BztA-Gln-NH2]	72 nM	> 20000 nM	
CC(=O)N1CCC[C@]12CC=CCCCC1(CCCC=CCCCOC(=O)N3CC[C@@](C(=O)N[C@@H](Cc4ccccc4C(F)(F)F)C(=O)N[C@@H](Cc4csc5ccccc45)C(=O)N[C@H](C)C(N)=O)(C3)NC(=O)[C@H](Cc3ccccc3)NC(=O)[C@H](Cc3ccccc3)NC(=O)[C@H](C)NC(=O)[C@H](C)NC(=O)[C@H](Cc3cccc(C(=O)O)c3)NC(=O)[C@H](CC(=O)O)NC1=O)NC(=O)[C@H](CC(C)(C)C)NC(=O)[C@H](CC(=O)O)NC2=O (stereo partly drawn) [I-2095, Ac-PL3-Asp-Npg-B5-Asp-3COOHF-Ala-Ala-Phe-Phe-PyrS2-2F3MeF-BztA-dAla-NH2]	78 nM		10500 nM
COC(=O)C[C@@H]1NC(=O)[C@H](CC(=O)O)NC(=O)C2(CCCC=CCCCOC(=O)N3CC[C@@](C(=O)N[C@@H](Cc4ccsc4)C(=O)N[C@@H](Cc4csc5ccccc45)C(=O)N[C@@H](CCC(N)=O)C(N)=O)(C3)NC(=O)[C@H](CC(C)C)NC(=O)[C@H](Cc3ccccc3)NC(=O)[C@H](C)NC(=O)[C@H](C)NC1=O)CCCC=CC[C@]1(CCCN1C(C)=O)C(=O)N[C@@H](CC(=O)O)C(=O)N[C@@H](CC(C)(C)C)C(=O)N2 (stereo partly drawn) [I-2361, Ac-PL3-Asp-Npg-B5-Asp-[Me]AspE-Ala-Ala-Phe-Leu-PyrS2-3Thi-BztA-Gln-NH2]	349 nM	36700 nM	
CC(=O)N1CCC[C@]12CC=CCCCC1(CCCC=CCCCOC(=O)N3CC[C@@](C(=O)N[C@@H](Cc4ccccc4C(F)(F)F)C(=O)N[C@@H](Cc4csc5ccccc45)C(=O)N[C@H](CCC(N)=O)C(N)=O)(C3)NC(=O)[C@H](Cc3ccccc3)NC(=O)[C@H](Cc3ccccc3)NC(=O)[C@H](C)NC(=O)[C@H](C)NC(=O)[C@H](Cc3cccc(C(=O)O)c3)NC(=O)[C@H](CC(=O)O)NC1=O)NC(=O)[C@H](CC(C)(C)C)NC(=O)[C@H](CC(=O)O)NC2=O (stereo partly drawn) [I-2093, Ac-PL3-Asp-Npg-B5-Asp-3COOHF-Ala-Ala-Phe-Phe-PyrS2-2F3MeF-BztA-dGln-NH2]	43 nM		5000 nM
